Source: PMC9853328, “Potent Platinum(IV) Prodrugs That Incorporate a Biotin Moiety to Selectively Target Cancer Cells” (Pharmaceutics, 2022)
Like-named read-outs stand apart in the source and are kept apart here.

Key:
HT29 colon cancer cells [1] = assay: MTT in vitro cytotoxicity assay, HT29; format: cell-based; conditions: MTT, 72 h drug exposure, n = 3, read-out: GI50 ± SEM, HT29
Description: (§1) The in vitro cytotoxicity assays were undertaken at Calvary Mater Hospital, Waratah, NSW, Australia, following a method previously published in the literature. A stock solution for each compound was prepared in DMSO (30 mM) and stored at −20 °C. The cell lines used in the study include HT29 colon, U87 glioblastoma, MCF-7 breast, A2780 ovarian, H460 lung, A431 skin, Du145 prostate, BE2-C neuroblastoma, SJ-G2 glioblastoma, MIA pancreas, and cisplatin-resistant ADDP ovarian (subclone of A2780) cancer cells, as well as the non-cancerous-derived MCF10A breast cell line. The cancer cell lines were cultured in a humidified atmosphere 5% CO2 at 37 °C and maintained in Dulbecco’s modified Eagle’s medium (Trace Biosciences, Sydney, Australia), supplemented with 10% foetal bovine serum, sodium bicarbonate (10 mM), penicillin (100 IU/mL), streptomycin (100 µg/mL), and glutamine (4 mM). The non-cancerous MCF10A cell line was maintained in DMEM:F12 (1:1) cell culture media, with 5% heat inactivated horse serum, supplemented with penicillin (50 IU/mL), streptomycin (50 µg/mL), glutamine (2 mM), HEPES (20 mM), epidermal growth factor (20 ng/mL), hydrocortisone (500 ng/mL), cholera toxin (100 ng/mL), and insulin (10 µg/mL). Cells were plated in duplicate in medium (100 µL) at a density of 2500–4000 cells per well in 96-well plates. On day 0, (24 h after plating) when the cells were in logarithmic growth, medium (100 μL) with or without the test agent was added to each well. The growth inhibitory effects were evaluated after 72 h drug exposure, using the MTT (3-(4,5-dimethylthiazol-2-yl)-2,5-diphenyltetrazolium bromide) assay, with the absorbance read at 540 nm. An eight-point dose–response curve was produced, which was used to determine the concentration at which growth was inhibited by 50% (GI50). This calculation was based on the difference between the optical density values on day 0 and those at the end of drug exposure. […] Experiments were conducted on three separate occasions and GI50 values were reported as the mean and standard error of the mean.

U87 glioblastoma cells [2] = assay: MTT in vitro cytotoxicity assay, U87; format: cell-based; conditions: 72 h drug exposure, n = 3, read-out: GI50 ± SEM, U87
Description: as §1

[3] = tested on: MCF-7 breast cancer cells; assay: MTT in vitro cytotoxicity assay, MCF-7; format: cell-based; conditions: for GI50: MTT, 72 h drug exposure, n = 3, read-out: GI50 ± SEM, MCF-7
[4] = tested on: A2780 ovarian cancer cells; assay: MTT in vitro cytotoxicity assay, A2780; format: cell-based; conditions: n = 3, read-out: GI50 ± SEM, A2780
Description: as §1

H460 lung cancer cells [5] = assay: MTT in vitro cytotoxicity assay, H460; format: cell-based; conditions: n = 3, read-out: GI50 ± SEM, H460
Description: as §1

A431 skin cancer cells [6] = assay: MTT in vitro cytotoxicity assay, A431; format: cell-based; conditions: n = 3, read-out: GI50 ± SEM, A431
Description: as §1

[7] = tested on: Du145 prostate cancer cells; assay: MTT in vitro cytotoxicity assay, Du145; format: cell-based; conditions: MTT, 72 h drug exposure, n = 3, read-out: GI50 ± SEM, Du145
Description: as §1

[8] = tested on: BE2-C neuroblastoma cells; assay: MTT in vitro cytotoxicity assay, BE2-C; format: cell-based; conditions: 72 h drug exposure, n = 3, read-out: GI50 ± SEM, BE2-C
Description: as §1

SJ-G2 glioblastoma cells [9] = assay: MTT in vitro cytotoxicity assay, SJ-G2; format: cell-based; conditions: n = 3, read-out: GI50 ± SEM, SJ-G2
Description: as §1

[10] = tested on: MIA pancreas cancer cells; assay: MTT in vitro cytotoxicity assay, MIA; format: cell-based; conditions: 72 h drug exposure, n = 3, read-out: GI50 ± SEM, MIA
Description: as §1

[11] = tested on: non-cancerous MCF10A breast cell line; assay: MTT in vitro cytotoxicity assay, MCF10A; format: cell-based; conditions: 72 h drug exposure, n = 3, read-out: GI50 ± SEM, MCF10A
Description: as §1

[12] = tested on: cisplatin-resistant ADDP ovarian (subclone of A2780) cancer cells; assay: MTT in vitro cytotoxicity assay, ADDP; format: cell-based; conditions: n = 3, read-out: GI50 ± SEM, ADDP
Description: as §1

[13] = tested on: ADDP (subclone of A2780) versus A2780 ovarian cancer cell lines; assay: Resistance factor, GI50 in ADDP/GI50 in A2780; format: cell-based
HT29 colon cancer cells [14] = tested on: HT29 colon cancer cells; design: method as in earlier work; conditions: MTT, same method, taken from the literature; ref [18],[46],[47]; read-out: GI50 ± SEM, HT29; cited from earlier work
U87 glioblastoma cells [15] = tested on: U87 glioblastoma cells; design: method as in earlier work; conditions: MTT, same method, taken from the literature; ref [18],[46],[47]; read-out: GI50 ± SEM, U87; cited from earlier work
[16] = tested on: MCF-7 breast cancer cells; design: method as in earlier work; conditions: MTT, same method, taken from the literature; ref [18],[46],[47]; read-out: GI50 ± SEM, MCF-7; cited from earlier work
[17] = tested on: A2780 ovarian cancer cells; design: method as in earlier work; conditions: MTT, same method, taken from the literature; ref [18],[46],[47]; read-out: GI50 ± SEM, A2780; cited from earlier work
H460 lung cancer cells [18] = tested on: H460 lung cancer cells; design: method as in earlier work; conditions: MTT, same method, taken from the literature; ref [18],[46],[47]; read-out: GI50 ± SEM, H460; cited from earlier work
A431 skin cancer cells [19] = tested on: A431 skin cancer cells; design: method as in earlier work; conditions: MTT, same method, taken from the literature; ref [18],[46],[47]; read-out: GI50 ± SEM, A431; cited from earlier work
[20] = tested on: Du145 prostate cancer cells; design: method as in earlier work; conditions: MTT, same method, taken from the literature; ref [18],[46],[47]; read-out: GI50 ± SEM, Du145; cited from earlier work
[21] = tested on: BE2-C neuroblastoma cells; design: method as in earlier work; conditions: MTT, same method, taken from the literature; ref [18],[46],[47]; read-out: GI50 ± SEM, BE2-C; cited from earlier work
SJ-G2 glioblastoma cells [22] = tested on: SJ-G2 glioblastoma cells; design: method as in earlier work; conditions: MTT, same method, taken from the literature; ref [18],[46],[47]; read-out: GI50 ± SEM, SJ-G2; cited from earlier work
[23] = tested on: MIA pancreas cancer cells; design: method as in earlier work; conditions: MTT, same method, taken from the literature; ref [18],[46],[47]; read-out: GI50 ± SEM, MIA; cited from earlier work
[24] = tested on: non-cancerous MCF10A breast cell line; design: method as in earlier work; conditions: MTT, same method, taken from the literature; ref [18],[46],[47]; read-out: GI50 ± SEM, MCF10A; cited from earlier work
[25] = tested on: cisplatin-resistant ADDP ovarian (subclone of A2780) cancer cells; design: method as in earlier work; conditions: MTT, same method, taken from the literature; ref [18],[46],[47]; read-out: GI50 ± SEM, ADDP; cited from earlier work
[26] = Homo sapiens, A2780, 72 h drug exposure

SMILES | GI50 (U87 glioblastoma cells [2]) [nM] | GI50 [10] [nM] | Resistance factor (RF) [13] | GI50 (HT29 colon cancer cells [14]) [nM] | GI50 (U87 glioblastoma cells [15]) [nM] | GI50 [16] [nM] | GI50 [17] [nM] | GI50 (H460 lung cancer cells [18]) [nM] | GI50 (A431 skin cancer cells [19]) [nM] | GI50 [20] [nM] | GI50 [21] [nM] | GI50 (SJ-G2 glioblastoma cells [22]) [nM] | GI50 [23] [nM] | GI50 [24] [nM] | GI50 [25] [nM] | GI50 (HT29 colon cancer cells [1]) [nM] | GI50 [3] [nM] | GI50 ([4]; 72 h drug exposure) [nM] | GI50 (H460 lung cancer cells [5]; 72 h drug exposure) [nM] | GI50 (A431 skin cancer cells [6]; 72 h drug exposure) [nM] | other results
O=C(O)CCCC[C@@H]1SC[C@@H]2NC(=O)N[C@@H]21 [Biotin, biotin] | > 50000 | > 50000 |  |  |  |  |  |  |  |  |  |  |  |  |  |  |  |  |  |  | GI50 (HT29 colon cancer cells [1]; Homo sapiens, HT-29): > 50000 nM; GI50 ([3]; Homo sapiens, MCF7): > 50000 nM; GI50 [4, 26]: > 50000 nM; GI50 (H460 lung cancer cells [5]; Homo sapiens, NCI-H460, 72 h drug exposure): > 50000 nM; GI50 (A431 skin cancer cells [6]; Homo sapiens, A-431, 72 h drug exposure): > 50000 nM; GI50 ([7]; Homo sapiens, DU-145): > 50000 nM; GI50 ([8]; Homo sapiens, BE(2)-C): > 50000 nM; GI50 (SJ-G2 glioblastoma cells [9]; SJ-G2, 72 h drug exposure): > 50000 nM; GI50 ([11]; Homo sapiens, MCF-10A): > 50000 nM; GI50 [12, 26]: > 50000 nM
[Cl-].[Cl-].c1cc2ccc3ccc[n+]4c3c2[n+](c1)[Pt-2]41[NH2+][C@H]2CCCC[C@@H]2[NH2+]1 [PHENSS(II)] |  |  | 0.793 | 87 ± 27 | 1200 ± 340 | 250 ± 41 | 290 ± 37 | 300 ± 32 | 340 ± 100 | 110 ± 27 | 390 ± 60 | 440 ± 55 | 240 ± 22 | 240 ± 60 | 230 ± 49 |  |  |  |  |  | 
Cc1cc2ccc[n+]3c2c2c1ccc[n+]2[Pt-2]31[NH2+][C@H]2CCCC[C@@H]2[NH2+]1.[Cl-].[Cl-] [5MESS(II)] | 320 ± 26 | 48 ± 2 | 0.557 |  |  |  |  |  |  |  |  |  |  |  |  | 33 ± 3.8 | 200 ± 12 | 61 ± 10 | 41 ± 5 | 120 ± 25 | GI50 [7]: 22 ± 2.7 nM; GI50 [8]: 270 ± 38 nM; GI50 (SJ-G2 glioblastoma cells [9]; 72 h drug exposure): 220 ± 10 nM; GI50 [11]: 30 ± 1.8 nM; GI50 ([12]; 72 h drug exposure): 34 ± 2.3 nM
COc1cc[n+]2c3c1ccc1c(OC)cc[n+](c13)[Pt-2]21([OH])([OH])[NH2+][C@H]2CCCC[C@@H]2[NH2+]1.O=[N+]([O-])[O-].O=[N+]([O-])[O-] [47OMESS(IV)] | 2600 ± 390 | 1900 ± 460 | 0.765 |  |  |  |  |  |  |  |  |  |  |  |  | 520 ± 85 | 510 ± 168 | 1700 ± 230 | 3100 ± 210 | 3300 ± 590 | selectivity towards MCF-7 compared to MCF10A (cytotoxicity) ([3]; GI50 MCF10A versus GI50 MCF-7): 7 fold; GI50 [7]: 270 ± 38 nM; GI50 [8]: 33000 ± 3200 nM; GI50 (SJ-G2 glioblastoma cells [9]; 72 h drug exposure): 7600 ± 1800 nM; GI50 [11]: 3700 ± 380 nM; GI50 ([12]; 72 h drug exposure): 1300 ± 58 nM
N.N.O=C([O-])C1(C(=O)[O-])CCC1.[Pt+2] [Carboplatin, carboplatin] |  |  |  | > 50000 | > 50000 | > 50000 | 9200 ± 2900 | 14000 ± 1000 | 24300 ± 2200 | 14700 ± 1200 | 18700 ± 1200 | 5700 ± 200 | > 50000 | > 50000 | > 50000 |  |  |  |  |  | 
